Assay results from the supplement of paper PMC11208160.

Assay: recombinant UMI read abundance after kanamycin selection (control-corrected) (log10(CPM+1)); higher = more efficient recombination; extreme values may be limits of the assay; sequences stand for … in AGTGCAGAGAAAATCGGCCAGTTTTCTCTGCCTGCAGTCCGCATGCCGTGGGACCCCTTGGGTTCTAACCTGTTGCCTAGATTTATGCAGCGGACTGCCTTTCTCCCAAAGTGATAAACCGG…AGGTTGGTTTCACT; site = the 11-nt donor
How it was run: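 Values are reported as log10(CPM+1), obtained by converting sequencing counts to CPM, averaging replicates and scaling by control-derived factors. The counts came from recombinant UMIs amplified by PCR across the donor–target junction. These UMIs came from a pooled Escherichia coli screen of donor and donor-binding-loop pairs for the IS621 bridge recombinase, plated with IPTG (0.07 mM) plus kanamycin or left unselected, in two replicates each.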
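Note: IS621 bridge recombinase in Escherichia coli cells against a fixed T5 target plasmid.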

“CCTTGCCCATGGACCGGTTTTCCCGGTAATCCGTATTTGAT (site CCTTGCCCTAT)” and “CCTTGCCCATGGACCGGTTTTCCCGGTAATCCGTATTTGAT (site GCTTGCCCTAT)” are within 0.2 log units of each other in “recombinant UMI read abundance (log10)” value: 0.00286 for the first, 0.00408 for the second.

First: CCTTGCCCATGGACCGGTTTTCCCGGTAATCCGTATTTGAT (site TCTTGCCCTAT)
Second: CGAACATCATGGACCGGTTTTCCCGGTAATCCGTATTTGGA (site CGAACATCTTC)
The “recombinant UMI read abundance (log10)” value of the first is lower: 0.00903 for the first, 1.93 for the second.

First: CGAACGTCATGGACCGGTTTTCCCGGTAATCCGTATTTGCG (site CGAACGTCTCG)
Second: CGAAGATCATGGACCGGTTTTCCCGGTAATCCGTATTTGCT (site CGAAGATCTAG)
The “recombinant UMI read abundance (log10)” value of the first is higher: 2.37 for the first, 1.51 for the second.

First: CGAAGATCATGGACCGGTTTTCCCGGTAATCCGTATTTGCT (site CGATCATCTAG)
Second: CGAAGGACATGGACCGGTTTTCCCGGTAATCCGTATTTGGT (site CGAAGGACTAC)
The “recombinant UMI read abundance (log10)” value of the first is lower: 0 for the first, 1.65 for the second.

Going from “CGAAGTGCATGGACCGGTTTTCCCGGTAATCCGTATTTGCC (site CGAAGTGCTGG)” to “CGAAGTGCATGGACCGGTTTTCCCGGTAATCCGTATTTGTT (site CGAAGTGCTAA)”, the “recombinant UMI read abundance (log10)” value rises from 0.751 to 2.57.

First: CGAATCCCATGGACCGGTTTTCCCGGTAATCCGTATTTGCA (site CGAATCCCTTG)
Second: CGAATTACATGGACCGGTTTTCCCGGTAATCCGTATTTGGC (site CGAATTACTGC)
The “recombinant UMI read abundance (log10)” value of the first is higher: 1.55 for the first, 1.14 for the second.

“CGAATTCCATGGACCGGTTTTCCCGGTAATCCGTATTTGCG (site CGAATTCCTCG)” and “CGAATTCCATGGACCGGTTTTCCCGGTAATCCGTATTTGTT (site CGAATTCCTAA)” are within 0.2 log units of each other in “recombinant UMI read abundance (log10)” value: 0.935 for the first, 0.99 for the second.

Compared with “CGAATTCCATGGACCGGTTTTCCCGGTAATCCGTATTTGTT (site CGGAATCCTAA)”, “CGACACGCATGGACCGGTTTTCCCGGTAATCCGTATTTGTT (site CGACACGCTAA)” is higher in “recombinant UMI read abundance (log10)” value: 0 for the first, 2 for the second.

“CGACCATCATGGACCGGTTTTCCCGGTAATCCGTATTTGGC (site CGACCATCTGC)” and “CGACCGTCATGGACCGGTTTTCCCGGTAATCCGTATTTGCA (site CGACCGTCTTG)” are within 0.2 log units of each other in “recombinant UMI read abundance (log10)” value: 3.07 for the first, 3.11 for the second.

First: CGAGCAGCATGGACCGGTTTTCCCGGTAATCCGTATTTGCT (site CAAGCAGCTAG)
Second: CGAGCAGCATGGACCGGTTTTCCCGGTAATCCGTATTTGCT (site CCAGCAGCTAG)
The “recombinant UMI read abundance (log10)” value of the first is higher: 1.13 for the first, 0.0072 for the second.

Compared with “CGAGCAGCATGGACCGGTTTTCCCGGTAATCCGTATTTGCT (site CGAGCAGCTAG)”, “CGAGCAGCATGGACCGGTTTTCCCGGTAATCCGTATTTGCT (site CGATCATCTAG)” is lower in “recombinant UMI read abundance (log10)” value: 2.13 for the first, 0 for the second.

First: CGAGCAGCATGGACCGGTTTTCCCGGTAATCCGTATTTGCT (site CTAGCAGCTAG)
Second: CGAGCATCATGGACCGGTTTTCCCGGTAATCCGTATTTGCA (site CGAGCATCTTG)
The “recombinant UMI read abundance (log10)” value of the first is lower: 0.852 for the first, 2.46 for the second.

Compared with “CGAGCATCATGGACCGGTTTTCCCGGTAATCCGTATTTGCA (site CGATCATCTAG)”, “CGAGCATCATGGACCGGTTTTCCCGGTAATCCGTATTTGTT (site CGAGCATCTAA)” is higher in “recombinant UMI read abundance (log10)” value: 0 for the first, 2.61 for the second.

Compared with “CGAGCATCATGGACCGGTTTTCCCGGTAATCCGTATTTGTT (site CGATCATCTAG)”, “CGAGCCTCATGGACCGGTTTTCCCGGTAATCCGTATTTGGC (site CGAGCCTCTGC)” is higher in “recombinant UMI read abundance (log10)” value: 0 for the first, 2.21 for the second.

Going from “CGAGCTTCATGGACCGGTTTTCCCGGTAATCCGTATTTGAA (site CGAGCTTCTTT)” to “CGAGGACCATGGACCGGTTTTCCCGGTAATCCGTATTTGAG (site CGAGGACCTCA)”, the “recombinant UMI read abundance (log10)” value falls from 1.88 to 0.015.

“CGAGGACCATGGACCGGTTTTCCCGGTAATCCGTATTTGAG (site CGAGGACCTCC)” and “CGAGGACCATGGACCGGTTTTCCCGGTAATCCGTATTTGAG (site CGAGGACCTCG)” are within 0.2 log units of each other in “recombinant UMI read abundance (log10)” value: 0 for the first, 0.00506 for the second.

First: CGAGGACCATGGACCGGTTTTCCCGGTAATCCGTATTTGAG (site CGAGGACCTCT)
Second: CGAGGAGCATGGACCGGTTTTCCCGGTAATCCGTATTTGGA (site CGAGGAGCTTC)
The “recombinant UMI read abundance (log10)” value of the first is lower: 0.00302 for the first, 1.57 for the second.

First: CGAGGATCATGGACCGGTTTTCCCGGTAATCCGTATTTGAC (site CGAGGATCTGT)
Second: CGAGGATCATGGACCGGTTTTCCCGGTAATCCGTATTTGAC (site CTAGTATCTGT)
The “recombinant UMI read abundance (log10)” value of the first is higher: 2.99 for the first, 0 for the second.

Compared with “CGAGGGCCATGGACCGGTTTTCCCGGTAATCCGTATTTGCA (site CGAGGGCCTTG)”, “CGAGGGCCATGGACCGGTTTTCCCGGTAATCCGTATTTGGG (site CGAGGACCTCC)” is lower in “recombinant UMI read abundance (log10)” value: 0.708 for the first, 0.0191 for the second.

“CGAGGGCCATGGACCGGTTTTCCCGGTAATCCGTATTTGGG (site CGAGGCCCTCC)” and “CGAGGGCCATGGACCGGTTTTCCCGGTAATCCGTATTTGGG (site CGAGGGCCTCC)” are within 0.2 log units of each other in “recombinant UMI read abundance (log10)” value: 0.0184 for the first, 0.0164 for the second.

“CGAGGGCCATGGACCGGTTTTCCCGGTAATCCGTATTTGGG (site CGAGGTCCTCC)” and “CGAGTACCATGGACCGGTTTTCCCGGTAATCCGTATTTGGG (site CGAGAACCTCC)” are within 0.2 log units of each other in “recombinant UMI read abundance (log10)” value: 0.0269 for the first, 0 for the second.

“CGAGTACCATGGACCGGTTTTCCCGGTAATCCGTATTTGGG (site CGAGCACCTCC)” and “CGAGTACCATGGACCGGTTTTCCCGGTAATCCGTATTTGGG (site CGAGGACCTCC)” are within 0.2 log units of each other in “recombinant UMI read abundance (log10)” value: 0.0141 for the first, 0.00419 for the second.

Compared with “CGAGTACCATGGACCGGTTTTCCCGGTAATCCGTATTTGGG (site CGAGTACCTCC)”, “CGAGTGCCATGGACCGGTTTTCCCGGTAATCCGTATTTGTT (site CGAGTGCCTAA)” is higher in “recombinant UMI read abundance (log10)” value: 0.0186 for the first, 0.52 for the second.

Going from “CGATAACCATGGACCGGTTTTCCCGGTAATCCGTATTTGGT (site CGATAACCTAC)” to “CGATACTCATGGACCGGTTTTCCCGGTAATCCGTATTTGCT (site CGATACTCTAG)”, the “recombinant UMI read abundance (log10)” value rises from 0 to 2.52.

“CGATACTCATGGACCGGTTTTCCCGGTAATCCGTATTTGCT (site CGATCATCTAG)” and “CGATAGACATGGACCGGTTTTCCCGGTAATCCGTATTTGCC (site AGATAGACTGG)” are the same in “recombinant UMI read abundance (log10)” value: 0 for the first, 0 for the second.

First: CGATAGACATGGACCGGTTTTCCCGGTAATCCGTATTTGCC (site CGATAGACTGG)
Second: CGATAGACATGGACCGGTTTTCCCGGTAATCCGTATTTGCC (site GGATAGACTGG)
The “recombinant UMI read abundance (log10)” value of the first is higher: 2.96 for the first, 0 for the second.

Going from “CGATAGACATGGACCGGTTTTCCCGGTAATCCGTATTTGCC (site TGATAGACTGG)” to “CGATAGCCATGGACCGGTTTTCCCGGTAATCCGTATTTGCT (site CGATAGCCTAG)”, the “recombinant UMI read abundance (log10)” value rises from 0 to 1.12.

First: CGATATACATGGACCGGTTTTCCCGGTAATCCGTATTTGTA (site CGATATACTTA)
Second: CGATATGCATGGACCGGTTTTCCCGGTAATCCGTATTTGGG (site CGATATGCTCC)
The “recombinant UMI read abundance (log10)” value of the first is higher: 2.25 for the first, 0.685 for the second.

Going from “CGATCAACATGGACCGGTTTTCCCGGTAATCCGTATTTGGT (site CGATCAACTAC)” to “CGATCAACATGGACCGGTTTTCCCGGTAATCCGTATTTGGT (site CGATCATCTAG)”, the “recombinant UMI read abundance (log10)” value falls from 0.796 to 0.

“CGATCACCATGGACCGGTTTTCCCGGTAATCCGTATTTGCC (site CGATCACCTGG)” and “CGATCACCATGGACCGGTTTTCCCGGTAATCCGTATTTGCC (site CGATCATCTAG)” are the same in “recombinant UMI read abundance (log10)” value: 0 for the first, 0 for the second.

“CGATCACCATGGACCGGTTTTCCCGGTAATCCGTATTTGCT (site CGATCAACTAG)” and “CGATCACCATGGACCGGTTTTCCCGGTAATCCGTATTTGCT (site CGATCACCTAG)” are the same in “recombinant UMI read abundance (log10)” value: 0 for the first, 0 for the second.

“CGATCACCATGGACCGGTTTTCCCGGTAATCCGTATTTGCT (site CGATCAGCTAG)” and “CGATCACCATGGACCGGTTTTCCCGGTAATCCGTATTTGCT (site CGATCATCTAG)” are the same in “recombinant UMI read abundance (log10)” value: 0 for the first, 0 for the second.

Compared with “CGATCAGCATGGACCGGTTTTCCCGGTAATCCGTATTTGCA (site CGATCAGCTTG)”, “CGATCAGCATGGACCGGTTTTCCCGGTAATCCGTATTTGCA (site CGATCATCTAG)” is lower in “recombinant UMI read abundance (log10)” value: 1.9 for the first, 0 for the second.

“CGATCAGCATGGACCGGTTTTCCCGGTAATCCGTATTTGCT (site CGATCAACTAG)” and “CGATCAGCATGGACCGGTTTTCCCGGTAATCCGTATTTGCT (site CGATCACCTAG)” are the same in “recombinant UMI read abundance (log10)” value: 0 for the first, 0 for the second.

Going from “CGATCAGCATGGACCGGTTTTCCCGGTAATCCGTATTTGCT (site CGATCAGCTAG)” to “CGATCAGCATGGACCGGTTTTCCCGGTAATCCGTATTTGCT (site CGATCATCTAG)”, the “recombinant UMI read abundance (log10)” value falls from 1.61 to 0.

Going from “CGATCATCATGGACCGGTTTTCCCGGTAATCCGTATTTGGT (site CGATCATCTAA)” to “CGATCATCATGGACCGGTTTTCCCGGTAATCCGTATTTGGT (site CGATCATCTAC)”, the “recombinant UMI read abundance (log10)” value rises from 0.00543 to 1.58.

Compared with “CGATCATCATGGACCGGTTTTCCCGGTAATCCGTATTTGGT (site CGATCATCTAG)”, “CGATCATCATGGACCGGTTTTCCCGGTAATCCGTATTTGGT (site CGATCATCTAT)” is higher in “recombinant UMI read abundance (log10)” value: 0.495 for the first, 1.08 for the second.

With “CGATCGACATGGACCGGTTTTCCCGGTAATCCGTATTTGCT (site CGATCGACTAA)” the “recombinant UMI read abundance (log10)” value was 0.3.
